Experimental data taken from US8236818B2, “Substituted imidazopyridine derivatives as melanocortin-4 receptor antagonists” (Santhera Pharmaceuticals (Schweiz) AG, priority 2007, dated 2012).

Assays:
[1] = molecular target: T1, melanocortin-4 receptor (Homo sapiens, UniProt P32245); assay: Functional assay (cAMP fluorescence polarization, membrane based, agonistic activity); type: biochemical; conditions: for Emax: 2 h, read-out: % activation functional assay; for EC50: agonistic activity, cAMP, HEK293 membrane preparations, read-out: hMC-4R functional assay EC50/μM
T1 construct: expressed in transfected cells; host or cells: HEK293 cells (membrane preparations)
T1 sequence (P32245 whole entry): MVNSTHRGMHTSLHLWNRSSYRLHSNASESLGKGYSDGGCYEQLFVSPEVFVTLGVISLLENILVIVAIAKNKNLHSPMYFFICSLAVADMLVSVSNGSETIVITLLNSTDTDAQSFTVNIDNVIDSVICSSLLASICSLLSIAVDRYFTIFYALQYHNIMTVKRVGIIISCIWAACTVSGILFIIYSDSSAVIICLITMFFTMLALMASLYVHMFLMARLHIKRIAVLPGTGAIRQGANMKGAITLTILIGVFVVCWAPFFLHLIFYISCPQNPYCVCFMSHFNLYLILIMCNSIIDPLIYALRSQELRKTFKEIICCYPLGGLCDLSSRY

[2] = molecular target: T1, melanocortin-4 receptor; assay: Membrane binding assay (fluorescence polarization, competition with fluorescence labeled NDP-alpha-MSH); conditions: read-out: hMC-4R binding assay IC50/μM

SMILES	Emax [1]	IC50 [2]	EC50 [1]
CC(C)CCN(CCC(C)C)C(=O)c1ccc2nc(-c3nccs3)c(CCCN3CCCC3)n2c1 [Example 49]	0%	< 0.1 µM	–
CC(C)CCN(CCC(C)C)C(=O)c1ccc2nc(-c3ccc(C(=O)N(C)C)cc3)c(CCCN3CCCC3)n2c1 [Example 63]	0%	0.1 to 1 µM	–
COc1cccc(-c2nc3ccc(C(=O)N(CCC(C)C)CCC(C)C)cn3c2CCCN2CCNCC2)c1 [Example 36]	0%	> 1 µM	–
COc1cccc(-c2nc3ccc(C(=O)N(CCC(C)C)CCC(C)C)cn3c2CCCN2CCOCC2)c1 [Example 12]	0%	< 0.1 µM	–
CC(C)CCN(CCC(C)C)C(=O)c1ccc2nc(-c3ccc(C#N)cc3)c(CCN3CCCC3)n2c1 [Example 26]	0%	0.1 to 1 µM	–
COc1cccc(-c2nc3ccc(C(=O)N(CCC(C)C)CCC(C)C)cn3c2CCCN2CCN(C)CC2)c1 [Example 15]	0%	0.1 to 1 µM	–
CC(C)CCN(CCC(C)C)C(=O)c1ccc2nc(C3CCOCC3)c(CCCN3CCCC3)n2c1 [Example 98]	-8%	0.1 to 1 µM	–
Cc1cccc(-c2nc3ccc(C(=O)N(CCC(C)C)CCC(C)C)cn3c2CCCN2CCCC2)n1 [Example 41]	0%	< 0.1 µM	–
CC(=O)OCCn1cc(-c2nc3ccc(C(=O)N(CCC(C)C)CCC(C)C)cn3c2CCCN2CCCC2C)ccc1=O (stereo not shown) [Example 101]	-25%	< 0.1 µM	–
CC(C)CCN(CCC1CC1)C(=O)c1ccc2nc(-c3ccc(C#N)cc3)c(CCCN3CCCC3)n2c1 [Example 143]	0%	< 0.1 µM	–
CC(C)CCN(CCC(C)C)C(=O)c1ccc2nc(-c3ncco3)c(CCCN3CCC(O)CC3)n2c1 [Example 77]	4%	< 0.1 µM	–
O=C(c1ccc2nc(-c3ccc(OCCO)nc3)c(CCCN3CCCC3)n2c1)N(CCC1CC1)CCC1CC1 [Example 108]	-19%	0.1 to 1 µM	–
CC(C)CCN(CCC(C)C)C(=O)c1ccc2nc(-c3cccc(=O)[nH]3)c(CCCN3CCCC3)n2c1 [Example 62]	0%	0.1 to 1 µM	–
COc1cccc(-c2nc3ccc(C(=O)N(CCC(C)C)CCC(C)C)cn3c2CCC(C)N2CCCC2)c1 (stereo not shown) [Example 21]	0%	< 0.1 µM	–
CC(C)CCN(CCC(C)C)C(=O)c1ccc2nc(-c3ccc(Cl)cc3)c(CN3CCC(N)CC3)n2c1 [Example 117]	0%	0.1 to 1 µM	–
COc1ccc(-c2nc3ccc(C(=O)N(CCC(C)C)CCC(C)C)cn3c2CN2CCC(N)CC2)cc1 [Example 140]	0%	0.1 to 1 µM	–

SMILES	Emax [1]	IC50 [2]	EC50 [1]
COc1cccc(-c2nc3ccc(C(=O)N(CCC(C)C)CCC(C)C)cn3c2CCCN(C)C)c1 [Example 28]	0%	0.1 to 1 µM	–
CC(C)CCN(CCC(C)C)C(=O)c1ccc2nc(-c3ncco3)c(CCCN3CCC3)n2c1 [Example 74]	1%	0.1 to 1 µM	–
CC(C)CCN(CCC(C)C)C(=O)c1ccc2nc(-c3ccc(=O)n(CC(C)O)c3)c(CCCN3CCCC3)n2c1 (stereo not shown) [Example 93]	0%	0.1 to 1 µM	–
CC(C)CCN(CCC(C)C)C(=O)c1ccc2nc(-c3ccccn3)c(CCCN3CCCC3)n2c1 [Example 55]	0%	0.1 to 1 µM	–
COc1cccc(-c2nc3ccc(C(=O)N(CCC(C)C)CCC(C)C)cn3c2CCCN2CCOC[C@@H]2C)c1 [Example 16]	0%	< 0.1 µM	–
CC(C)CCN(CCC(C)C)C(=O)c1ccc2nc(-c3ncco3)c(CCCN3CCC[C@@H]3C)n2c1 [Example 85]	-2%	< 0.1 µM	–
Cc1ccc(-c2nc3ccc(C(=O)N(CCC(C)C)CCC(C)C)cn3c2CCCN2CCCC2)nc1 [Example 57]	0%	< 0.1 µM	–
CC(C)CCN(CCC(C)C)C(=O)c1ccc2nc(-c3ccc(Cl)cc3)c(CCCCN3CCCC3)n2c1 [Example 22]	0%	0.1 to 1 µM	–
CC(C)CCN(CCC(C)C)C(=O)c1ccc2nc(-c3ccc(C(F)(F)F)cc3)c(CN3CCC(N)CC3)n2c1 [Example 134]	0%	0.1 to 1 µM	–
CC(C)CCN(CCC(C)C)C(=O)c1ccc2nc(-c3ccc(Cl)cn3)c(CCCN3CCCC3)n2c1 [Example 42]	0%	< 0.1 µM	–
CC(C)CCN(CCC(C)C)C(=O)c1ccc2nc(-c3nccs3)c(CCCN(C)C)n2c1 [Example 61]	0%	0.1 to 1 µM	–
CC(C)CCN(CCC(C)C)C(=O)c1ccc2nc(-c3cccnc3N)c(CCCN3CCCC3)n2c1 [Example 90]	-41%	0.1 to 1 µM	> 1 µM
CC(C)CCN(CCC(C)C)C(=O)c1ccc2nc(-c3ccc(Cl)c(Cl)c3)c(CN3CCC(N(C)C)CC3)n2c1 [Example 131]	0%	< 0.1 µM	–
CNC(=O)c1ccc(-c2nc3ccc(C(=O)N(CCC(C)C)CCC(C)C)cn3c2CCCN2CCCC2)cc1 [Example 64]	0%	< 0.1 µM	–
CC(C)CN(CC(C)C)C(=O)c1ccc2nc(-c3ccc(C#N)cc3)c(CCCN3CCCC3)n2c1 [Example 144]	0%	0.1 to 1 µM	–

The next lines start with the values.

Emax [1]	IC50 [2]	EC50 [1]	SMILES
-13%	> 1 µM	–	CC(C)CCN(CCC(C)C)C(=O)c1ccc2nc(-c3ccc(OCC(C)O)nc3)c(CCCN3CCCC3)n2c1 (stereo not shown) [Example 94]
0%	0.1 to 1 µM	–	COc1cccc(-c2nc3ccc(C(=O)N(CCC(C)C)CCC(C)C)cn3c2CCCN(C(C)C)C(C)C)c1 [Example 60]
0%	0.1 to 1 µM	–	CC(C)CCN(CCC(C)C)C(=O)c1ccc2nc(-c3ncco3)c(CCCN3CCC[C@@H]3CO)n2c1 [Example 70]
0%	> 1 µM	–	CCCC1CCCN1C(=O)c1ccc2nc(-c3ccc(C#N)cc3)c(CCCN3CCCC3)n2c1 (stereo not shown) [Example 147]
0%	0.1 to 1 µM	–	CC(C)CCN(CCC(C)C)C(=O)c1ccc2nc(-c3ccc(Cl)cc3)c(CCCN)n2c1 [Example 4]
0%	0.1 to 1 µM	–	CC(C)CCN(CCC(C)C)C(=O)c1ccc2nc(-c3ccc(C#N)cc3)c(CN3CCC(N)CC3)n2c1 [Example 138]
0%	< 0.1 µM	–	CCCCN(CCCC)C(=O)c1ccc2nc(-c3ccc(C#N)cc3)c(CCCN3CCCC3)n2c1 [Example 142]
0%	< 0.1 µM	–	N#Cc1ccc(-c2nc3ccc(C(=O)N(CCC4CC4)CCC4CC4)cn3c2CCCN2CCCC2)cc1 [Example 145]
-35%	0.1 to 1 µM	0.1 to 1 µM	CC(C)CCN(CCC(C)C)C(=O)c1ccc2nc(-c3ncco3)c(CCCN3CC[C@H](O)C3)n2c1 [Example 80]
-24%	0.1 to 1 µM	–	CC(=O)OCCn1cc(-c2nc3ccc(C(=O)N(CCC4CC4)CCC4CC4)cn3c2CCCN2CCCC2)ccc1=O [Example 105]
-29%	0.1 to 1 µM	0.1 to 1 µM	CC(C)CCN(CCC(C)C)C(=O)c1ccc2nc(-c3ccc(=O)n(CCCO)c3)c(CCCN3CCCC3)n2c1 [Example 91]
0%	0.1 to 1 µM	–	CC(C)CCN(CCC(C)C)C(=O)c1ccc2nc(-c3ccccc3)c(CN3CCC(N)CC3)n2c1 [Example 133]
0%	< 0.1 µM	–	CC(C)CCN(CCC(C)C)C(=O)c1ccc2nc(-c3ccc(=O)[nH]c3)c(CCCN3CCCC3)n2c1 [Example 59]
0%	> 1 µM	–	COCC(C)NCCCc1c(-c2cccc(OC)c2)nc2ccc(C(=O)N(CCC(C)C)CCC(C)C)cn12 (stereo not shown) [Example 13]
0%	< 0.1 µM	–	COc1cccc(-c2nc3ccc(C(=O)N(CCC(C)C)CCC(C)C)cn3c2CCCN2CCCCC2)c1 [Example 31]
-17%	0.1 to 1 µM	–	O=C(c1ccc2nc(-c3ccc(=O)n(CCO)c3)c(CCCN3CCCC3)n2c1)N(CCC1CC1)CCC1CC1 [Example 107]
-15%	< 0.1 µM	–	CC(=O)OCCOc1ccc(-c2nc3ccc(C(=O)N(CCC(C)C)CCC(C)C)cn3c2CCCN2CCCC2C)cn1 (stereo not shown) [Example 102]
0%	0.1 to 1 µM	–	CC(C)CCN(CCC(C)CO)C(=O)c1ccc2nc(-c3ccc(=O)[nH]c3)c(CCCN3CCCC3)n2c1 (stereo not shown) [Example 149]
0%	< 0.1 µM	–	CC(C)CCN(CCC(C)C)C(=O)c1ccc2nc(-c3ccc(C(N)=O)cc3)c(CCCN3CCCC3)n2c1 [Example 25]
-23%	< 0.1 µM	–	CC1CCCN1CCCc1c(-c2ccc(=O)[nH]c2)nc2ccc(C(=O)N(CCC3CC3)CCC3CC3)cn12 (stereo not shown) [Example 109]
4%	0.1 to 1 µM	–	CC(C)CCN(CCC(C)C)C(=O)c1ccc2nc(-c3ncco3)c(CCCN3CCC[C@H]3CO)n2c1 [Example 76]
0%	0.1 to 1 µM	–	CC(C)CCN(CCC(C)C)C(=O)c1ccc2nc(-c3cccc(C#N)c3)c(CN3CCC(N)CC3)n2c1 [Example 122]
-1%	0.1 to 1 µM	–	CC(C)CCN(CCC(C)C)C(=O)c1ccc2nc(-c3ccc(C(=O)O)cc3)c(CCCN3CCCC3)n2c1 [Example 50]
-8%	< 0.1 µM	–	CC(C)CCN(CCC(C)C)C(=O)c1ccc2nc(-c3ncccn3)c(CCCN3CCCC3)n2c1 [Example 84]
0%	0.1 to 1 µM	–	COc1ccc(-c2nc3ccc(C(=O)N(CCC(C)C)CCC(C)C)cn3c2CN2CCC(N)CC2)cc1OC [Example 139]
-22%	< 0.1 µM	< 0.1 µM	COc1cccc(-c2nc3ccc(C(=O)N(CCC(C)C)CCC(C)C)cn3c2CCCN2CC[C@H](O)C2)c1 [Example 33]
0%	< 0.1 µM	–	Cc1nc(C)c(-c2nc3ccc(C(=O)N(CCC(C)C)CCC(C)C)cn3c2CCCN2CCCC2)o1 [Example 48]
-20%	< 0.1 µM	–	CC(C)CCN(CCC(C)C)C(=O)c1ccc2nc(-c3ccc(=O)n(CCO)c3)c(CCCN3CCCC3C)n2c1 (stereo not shown) [Example 103]
0%	< 0.1 µM	–	CC(C)CCN(CCC(C)C)C(=O)c1ccc2nc(-c3ncco3)c(CCCN3CCCC3)n2c1 [Example 47]
